Where two headings read alike, the source gives them in different places. Each block holds one compound with its values, some of them ahead of it. Where a SMILES comes first, the peptide text is derived from it. Bridges are numbered along the chain shown (N, C = ends). [ ]: non-standard residue; d: D form. The star is where a group is joined. Phe(4-Cl) = N[C@@H](Cc1ccc(Cl)cc1)C(=O)O; Hyp = O=C(O)[C@@H]1C[C@@H](O)CN1; Pentanoyl(4-Me) = CC(C)CCC(=O)*; Cit = NC(=O)NCCC[C@H](N)C(=O)O; Nle = CCCC[C@H](N)C(=O)O; Nva = CCC[C@H](N)C(=O)O; Pentanoyl = CCCCC(=O)*
What was measured:
human uPAR (uPAR-Fc) = molecular target: T1, human uPAR (uPAR-Fc) (Homo sapiens, UniProt Q03405); experiment: Surface plasmon resonance (SPR) assay, single cycle kinetics; type: binding; settings: pKD category for uPAR SPR activity assay, uPAR-Fc on Protein A-Chip, 25°C; for Kd: read-out: pKD CAT (converted)
T1 construct: comprising amino acids Leu23-Arg303 according to UniProt entry Q03405.1; purchased R&D Systems 10378-UK-100
Protocol: Surface plasmon resonance (SPR) is an optical technique used to measure molecular interactions in real time. SPR occur when plane-polarized light hits a metal film under total internal reflection conditions. SPR signal is directly dependent on the refractive index of the medium on the sensor chip. In an SPR experiment, one molecule (i.e. uPAR) is immobilized on a sensor chip and binding to a second molecule (i.e. test compounds) is measured under flow. The binding of the compound on the surface changes the refractive index. In responses the reflection angle changes as compounds bind and dissociate on the immobilized protein on the surface. This response is measured in resonance units (RU). The RUs are proportional to the number of molecules bound to the surface. […] Kinetic binding constants and equilibrium binding constants can be derived from the sensorgrams.
Surface plasmon resonance (SPR) studies were performed using a Biacore™ T200 or S200 SPR system (Cytiva, formerly GE Life Sciences) to assess binding of compounds to recombinant uPAR protein.
In this example recombinant protein comprising the extracellular domains of human uPAR (uPAR-Fc, R&D Systems, CAT 10378-UK-100, comprising amino acids Leu23-Arg303 according to UniProt entry Q03405.1 and Fc region of human IgG1 at the C-terminus) was immobilized on a Protein A-Chip (Cytiva, CAT 29127555) according to the supplier's instructions. uPAR-Fc was diluted in Running Buffer (10 mM HEPES, 150 mM NaCl, 50 µM EDTA, 0.1% DMSO, 0.05% Tween-20, pH 7.4) to a final concentration of 100 nM and then flushed over the Protein A-Chip to immobilized ~2000 RUs.
Stock solutions of test compounds were prepared by dissolving each compound in DMSO. DMSO stock solution were diluted 1: 1000 in Running Buffer without DMSO. Further sequential dilutions were made with Running Buffer containing 0.1% DMSO. SPR binding analyses were performed in Single Cycle Kinetic (SCK) mode at 25°C. Flow cell without immobilized uPAR-Fc served as reference flow cell. The chip was regenerated with 10 mM Glycine, pH 1,5 to remove the uPAR-Fc from the chip surface after each SCK run. After every three SCK measurements, a blank run with Running Buffer instead of test compound was included to correct for baseline drifts (double reference substraction method). Table 11: SPR protocol steps for SCK with uPAR-Fc immobilized on a Protein A-Chip.
For each test compound, SPR raw data sensorgrams were recorded using the Biacore™ T200 or S200 control software. Sensorgrams were processed and analyzed with the Biacore™ Insight Evaluation software. […] The reference subtracted sensorgram for each test compound was further corrected for baseline drift by subtracting the sensorgram of a reference subtracted blank run (Running Buffer only). The dissociation constant (KD) was calculated from the double reference subtracted sensorgrams using the 1:1 Langmuir binding model. The pKD value (negative decadic logarithm of dissociation constant) was calculated using Microsoft Excel.

[1] = molecular target: T2, uPAR-expressing HEC-265 human endometrial adenocarcinoma cells (Homo sapiens, UniProt Q03405); experiment: Competitive FACS binding assay; settings: pIC50 category of FACS binding
T2 construct: Cell surface uPAR-expressing HEC-265 human endometrial adenocarcinoma cells; host or cells: HEC-265
Protocol: In order to determine binding of compounds according to the present invention to uPAR-expressing cells, a competitive FACS binding assay was established.
Cell surface uPAR-expressing HEC-265 human endometrial adenocarcinoma cells (Japanese Collection of Research Bioresources, #JCRB1142) were cultured in MEM Eagle with stable glutamine (Pan Biotech, #P04-09500) including 15% fetal bovine serum (Pan Biotech, #P30-3306) and 100 U/ml penicillin and 100 µg/mL streptomycin (Pan Biotech, #P06-07100). Cells were detached with Cell Dissociation Buffer (Thermo Scientific, #13151014) and washed in FACS buffer (PBS (Pan Biotech, #P04-36500) including 1% BSA (SeraCare, #AP-4510-80). Cells were diluted in FACS buffer to a final concentration of 500.000 cells per ml and 200 µl of the cell suspension are transferred to a u-shaped non-binding 96-well plate (Greiner Bio-One, #650901).
For IC50 determination, cells were incubated with 10 nM Bio--Ttds--Ttds--Ttds--Ttds-D-Cha-FsrYLWS-NH2) in the presence of increasing concentrations of non-labeled test compounds at 4°C for 1 hour. Cells were washed twice in FACS buffer. An additional incubation step with 1 µg/mL APC-Streptavidin (Miltenyi; #130-106-791) in 50 µL FACS buffer for 30 minutes on ice was performed followed by two washes with FACS buffer. Cells were resuspended in 200 µl FACS buffer and analyzed in an Attune NxT flow cytometer. Median fluorescence intensities (APC channel) were calculated by Attune NxT software and plotted against peptide concentrations. Four parameter logistic (4PL) curve fitting and pIC50 calculations were performed using ActivityBase software.

T2 sequence (Q03405 23-335): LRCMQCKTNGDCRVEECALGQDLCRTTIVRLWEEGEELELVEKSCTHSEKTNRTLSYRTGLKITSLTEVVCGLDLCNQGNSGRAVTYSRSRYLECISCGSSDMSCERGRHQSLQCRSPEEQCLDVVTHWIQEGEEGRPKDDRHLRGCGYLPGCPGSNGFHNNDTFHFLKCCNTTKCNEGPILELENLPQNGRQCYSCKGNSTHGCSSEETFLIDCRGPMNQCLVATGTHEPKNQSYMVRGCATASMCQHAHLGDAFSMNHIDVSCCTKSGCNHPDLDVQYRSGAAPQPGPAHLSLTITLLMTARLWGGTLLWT
T1 sequence (Q03405 23-303): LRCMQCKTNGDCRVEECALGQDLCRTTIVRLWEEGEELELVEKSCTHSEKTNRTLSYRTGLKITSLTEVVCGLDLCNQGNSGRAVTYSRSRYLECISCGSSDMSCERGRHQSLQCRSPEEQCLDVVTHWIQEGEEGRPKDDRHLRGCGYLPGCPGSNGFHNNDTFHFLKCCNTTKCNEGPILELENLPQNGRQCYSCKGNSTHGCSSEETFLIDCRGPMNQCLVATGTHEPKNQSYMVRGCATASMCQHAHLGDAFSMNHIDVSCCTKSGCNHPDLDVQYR

Compound: Pent-[Cys-Cit-Lys(LaDOTA)-Tyr-Thi-Pro-Hyp-Ile-Nva-Cys]-NH2 [UPAR-166]
pKD CAT (human uPAR (uPAR-Fc)): A (pKD values ≥ 8.8) | pIC50 CAT [1]: A (pIC50 values ≥8.0)

Compound: CCCCC(=O)N[C@@H](C)C(=O)N[C@@H](CCCNC(N)=O)C(=O)N[C@@H](CCC(N)=O)C(=O)N[C@@H](Cc1ccc(O)cc1)C(=O)N[C@@H](Cc1ccccc1)C(=O)N1CCC[C@H]1C(=O)N1C[C@H](O)C[C@H]1C(=O)N[C@H](C(=O)N[C@@H](CCC)C(=O)N[C@@H](CSC)C(N)=O)[C@@H](C)CC [UPAR-205, Pent-Ala-Cit-Gln-Tyr-Phe-Pro-Hyp-Ile-Nva-Smc-NH2] (Pentanoyl-A[Cit]QYFP[Hyp]I[Nva]C(Me)-NH2)
Kd (human uPAR (uPAR-Fc)): > 100 nM | IC50 [1]: ≥ 126 nM

Compound: CCCCC(=O)N[C@H]1CSSC[C@@H](C(N)=O)NC(=O)[C@H](CCC)NC(=O)[C@H]([C@@H](C)CC)NC(=O)[C@@H]2C[C@@H](O)CN2C(=O)[C@@H]2CCCN2C(=O)[C@H](Cc2ccccc2)NC(=O)[C@H](Cc2c[nH]c3ccccc23)NC(=O)[C@H](CCC(N)=O)NC(=O)[C@H](CCCNC(=N)N)NC1=O [UPAR-401, Pent-[Cys-Arg-Gln-Trp-Phe-Pro-Hyp-Ile-Nva-Cys]-NH2] (Pentanoyl-CRQWFP[Hyp]I[Nva]C-NH2; disulfide 1-10)
Kd (human uPAR (uPAR-Fc); single cycle kinetics): < 1.58 nM | IC50 [1]: ≤ 10 nM

The remaining lines, values ahead:

Kd (human uPAR (uPAR-Fc)): < 1.58 nM | IC50 [1]: ≤ 10 nM
Compound: CC[C@H](C)[C@@H]1NC(=O)[C@@H](C)NC(=O)[C@@H]2CCCN2C(=O)[C@H](Cc2ccc(Cl)cc2)NC(=O)[C@H](Cc2ccc(O)cc2)NC(=O)[C@H](CCC(N)=O)NC(=O)[C@H](CCCNC(N)=O)NC(=O)[C@@H](NC(=O)CCC(C)C)CSSC[C@@H](C(N)=O)NC(=O)[C@H](CC(C)C)NC1=O [UPAR-332, iHex-[Cys-Cit-Gln-Tyr-Pcf-Pro-ala-Ile-Leu-Cys]-NH2] ({Pentanoyl(4-Me)}-C[Cit]QY[Phe(4-Cl)]P[dA]ILC-NH2; disulfide 1-10)

Kd (human uPAR (uPAR-Fc)): < 1.58 nM | IC50 [1]: ≤ 10 nM
Compound: CCCC[C@@H]1NC(=O)[C@H](CCCNC(=N)N)NC(=O)[C@@H](NC(=O)[C@H](CC(C)C)NC(=O)[C@@H](CC(=O)O)NC(C)=O)CSSC[C@@H](C(N)=O)NC(=O)[C@H](CC(C)C)NC(=O)[C@H]([C@@H](C)CC)NC(=O)[C@H](C)NC(=O)[C@@H]2CCCN2C(=O)[C@H](Cc2ccccc2)NC(=O)[C@H](Cc2ccc(O)cc2)NC1=O [UPAR-133, Ac-asp-Leu-[Cys-Arg-Nle-Tyr-Phe-Pro-Ala-Ile-Leu-Cys]-NH2] (Ac-[dD]LCR[Nle]YFPAILC-NH2; disulfide 3-12)

Kd (human uPAR (uPAR-Fc)): 10 to 100 nM | IC50 [1]: 39.8 to 100 nM
Compound: CCCCC(=O)N[C@H]1CSSC[C@@H](C(N)=O)NC(=O)[C@H](CCC)NC(=O)[C@H]([C@@H](C)CC)NC(=O)[C@@H]2C[C@@H](O)CN2C(=O)[C@H](CCCCN)NC(=O)[C@H](Cc2ccccc2)NC(=O)[C@H](Cc2ccc(O)cc2)NC(=O)[C@H](CCC(N)=O)NC(=O)[C@H](CCCNC(=N)N)NC1=O [UPAR-298, Pent-[Cys-Arg-Gln-Tyr-Phe-Lys-Hyp-Ile-Nva-Cys]-NH2] (Pentanoyl-CRQYFK[Hyp]I[Nva]C-NH2; disulfide 1-10)

Source: EP4610269A1, “UROKINASE PLASMINOGEN ACTIVATOR SURFACE RECEPTOR (UPAR) LIGANDS FOR DIAGNOSTIC OR THERAPEUTIC USE” (3B Pharmaceuticals GmbH, priority 2024, dated 2025)
